In patent publication US6365379B1, “Zinc finger peptide cleavage of nucleic acids” (ISIS Pharmaceuticals, Inc., priority 1998, dated 2002):

Tests used:
Format in all cases: biochemical
[1] = test system: 9713 (RNA) 20-mer RNA oligonucleotide, Seq. I.D. No. 7; assay: Initial rate of cleavage of single stranded oligonucleotide by the peptides; parameters: unit not given here
Procedure: (§1) FIG. 1A depicts the Kinetics of RNA Cleavage by the Finger Peptide of Seq. I.D. No. 1. Multiple turnover kinetics are shown for RNA cleavage by the wild-type peptide (open box) and wild-type peptide coordinated with zinc (open triangle). […] I.D. No. 1. Multiple turnover kinetics were performed in 100 μL containing 50 nM peptide, 100 to 1000 nM or a 20—mer RNA oligonucleotide denominated 9713 and having Seq. I.D. No. 7, as […] 32P labeled RNA in 20 mM Sodium Phosphate, pH 7.0, 100 mM KCl, 1 mM EDTA, and 0.1% NP40. Digestion reaction were incubated at 37° C. and quenched at specific time points in 6 M urea. Digestion products were analyzed by denaturing polyacrylamide gel electrophoresis. […] Single turnover kinetics were performed as described above with the exception that peptide ranging in concentration from 50 to 500 nM was added to 50 nM of the 9713 RNA, Seq. I.D. No. 7.
Initial rates of cleavage of several single stranded oligonucleotides were determined as described in connection with FIG. 1 with the exception that 50 nM wild-type peptide and 500 nM oligonucleotide were used. […]
I.D. No. 1. […] Reactions were quenched at 30 min. and digestion products analyzed by denaturing polyacrylamide gel electrophoresis.
Initial rates were determined as described in connection with FIG. 2. Peptide structure was determined by SDS PAGE and LC-MS.

[2] = test system: Single strand DNA, double strand RNA and DNA, and 2′-methoxy modified sequences; assay: Cleavage selectivity against other nucleic acids
Procedure: (§2) Initial rates of cleavage of several single stranded oligonucleotides were determined as described in connection with FIG. 1 with the exception that 50 nM wild-type peptide and 500 nM oligonucleotide were used. Arrows indicate the position of the peptide induced cleavage. The relative intensity of the cleavage product for each respective cleavage sites is indicated by the length of the arrows.

[3] = test system: RNA substrate 9713, Seq. I.D. No. 7; assay: Cleavage product analysis of RNA substrate
Text: FIG. 3A presents a schematic cleavage product analysis of RNA aubstrate. RNA substrate 9713, Seq. I.D. No. 7, was internally labeled at the penultimate 3′ phosphate using (^32P) cytidine bisphosphate and T4 RNA ligase. The 3′ terminal phosphate was removed using calf intestinal phosphatase and the RNA digested with the wild type peptide as described in the schematic of FIG. 3A. The digestion reactions were divided into equal aliquots and one aliquot subjected to an additional dephosphorylation. The digested products were analyzed by denaturing polyacrylamide gel electrophoresis.

[4] = test system: 20-mer RNA oligonucleotide 9713, Seq. I.D. No. 7; assay: Multiple turnover kinetics of RNA cleavage, Lineweaver-Burk analysis; conditions: zinc-free form of the finger peptide
Procedure: as §1

single stranded RNA = assay: RNA cleavage (ribonuclease) activity of the peptides
Procedure: as §1
(§3) I.D. No. 1. Digestion reactions were performed as described in FIG. 1 in the presence of either Mg2+ (solid) or Mn2+ (hashed). Reactions were quenched at 30 min. and digestion products analyzed by denaturing polyacrylamide gel electrophoresis.

[5] = test system: 12079 (2′-OMe) single stranded oligonucleotide, SEQ ID 3; assay: Initial rate of cleavage of single stranded oligonucleotide by the finger peptide; parameters: unit not given here; conditions: substrate 12079 (2′-OMe); 50 nM wild-type peptide, 500 nM oligonucleotide
Procedure: as §1, §2

[6] = test system: 4701 (DNA) single stranded oligonucleotide, SEQ ID 2; assay: as above; parameters: unit not given here; conditions: substrate 4701 (DNA); 50 nM wild-type peptide, 500 nM oligonucleotide
Procedure: as §1, §2

[7] = test system: 2755 (RNA) single stranded oligonucleotide, SEQ ID 5; assay: as above; parameters: unit not given here; conditions: substrate 2755 (RNA); 50 nM wild-type peptide, 500 nM oligonucleotide
Procedure: as §1, §2

[8] = test system: 3058 (RNA) single stranded oligonucleotide, SEQ ID 4; assay: as above; parameters: unit not given here; conditions: substrate 3058 (RNA); 50 nM wild-type peptide, 500 nM oligonucleotide
Procedure: as §1, §2

[9] = test system: 12147 (RNA) single stranded oligonucleotide, SEQ ID 6; assay: as above; parameters: unit not given here; conditions: substrate 12147 (RNA); 50 nM wild-type peptide, 500 nM oligonucleotide
Procedure: as §1, §2

RNA [10] = assay: pH dependence of RNA cleavage; conditions: bell shaped pH profile, pH 4 to 9
Procedure: I.D. No. 1. Initial rates were determined as described in connection with FIG. 2. For each rate determination the pH was adjusted using either 20 mM sodium acetate, pH 4, 20 mM sodium phosphate, pH 5 to pH 8 or 20 mM sodium carbonate, pH 9.

RNA [11] = assay: Effect of divalent cations on RNA cleavage activity; conditions: Mg2+ and Mn2+
Procedure: as §3

Substance: HOOC-KTYQCQYCEY RSADSSNLKTHIKTKHSKEK-NH2 [Wild type]
- V0 ([1]; substrate 9713 (RNA), 50 nM wild-type peptide, 500 nM oligonucleotide): 6100
- V0 (9713) ([1]; substrate 9713 RNA, wild type and mutant peptides): 6000 ± 130
- hydrolysis of non single strand RNA substrates ([2]; listed as SEQ ID No. 1): not hydrolyzed
- hydrolysis of non single strand RNA substrates ([2]; listed as the peptide): not degraded
- termini of RNA cleavage products ([3]; listed as SEQ ID No. 1): 3′-phosphate and 5′-hydroxyl
- termini of RNA cleavage products ([3]; listed as wild type peptide): 3′-phosphate and 5′-hydroxyl termini
- Kcat [4]: 0.96 s⁻¹
- Km [4]: 0.105 µM
- V0 [4]: 6 nmol/L/min
- cleavage site specificity within single stranded RNA (single stranded RNA): preferentially cleave 5′-pyr-A-3′
- cleavage rate of RNA sequences containing 5′-pyr-A-3′ relative to those without (single stranded RNA; fold faster): 10-30 fold
- ribonuclease activity on coordination of the peptide with zinc (single stranded RNA; peptide coordinated with zinc): complete loss of ribonuclease activity
- V0 [5]: 0
- V0 [6]: 0
- V0 [7]: 422
- V0 [8]: 153
- V0 [9]: 1200
- pH for RNA cleavage (RNA [10]): 7.0
- requirement of divalent cations for catalysis (RNA [11]): not to be required for catalysis
